Assay type in all cases: in vivo, Balb/c mice
One assay concerns TNF-α. Kind of assay: TNF-α in alveolar lavage fluid of LPS-induced ALI/ARDS mice (Elisa). The following applies: for Inhibition of TNF-α (%): oral single dose 0.5 h before LPS (146 150 mg/kg, 41 75 mg/kg, 450 100 mg/kg, dexamethasone 10 mg/kg), alveolar lavage fluid supernatant 4 hours after LPS.
Assay [1] has as its system LPS-induced ALI/ARDS model mice. The assay can be described thus: Lung pathology score (HE staining) in LPS-induced ALI/ARDS mice. To be noted: left lung HE staining, 24 hours after LPS; four categories each scored 0 to 4.
Experimental: LPS induced model was given again after 6 hours, and the dose was the same as that of the first administration. […] The mice were euthanized with excess carbon dioxide. After the maximum blood volume was collected from the heart, the left lung was fixed with neutral formaldehyde and embedded in paraffin, sliced and HE staining, photographed to observe the lung injury and score.
Lung pathology scoring criteria: (1) alveolar congestion; (2) hemorrhage; (3) neutrophil infiltration into airspace or vascular wall; (4) alveolar wall/thickness formed by hyaline membrane.
The next assay has as its system IL-6. The assay can be described thus: IL-6 in alveolar lavage fluid of LPS-induced ALI/ARDS mice (Elisa). The following applies: for Inhibition of IL-6 (%): oral single dose 0.5 h before LPS (146 150 mg/kg, 41 75 mg/kg, 450 100 mg/kg, dexamethasone 10 mg/kg), alveolar lavage fluid supernatant 4 hours after LPS.
In another assay the test system is IL-1β. The assay can be described thus: IL-1β in alveolar lavage fluid of LPS-induced ALI/ARDS mice (Elisa). The following applies: for Inhibition of IL-1β (%): oral single dose 0.5 h before LPS (146 150 mg/kg, 41 75 mg/kg, 450 100 mg/kg, dexamethasone 10 mg/kg), alveolar lavage fluid supernatant 4 hours after LPS.
Assay [2] relates to LPS-induced ALI/ARDS model mice. The assay can be described thus: Cell count of alveolar lavage fluid in LPS-induced ALI/ARDS mice. The following applies: 24 hours after LPS, oral dosing 0.5 h before and 6 hours after LPS.
Experimental: (§1) LPS induced model was given again after 6 hours, and the dose was the same as that of the first administration. After 24 hours from LPS induced model, all mice were weighed, the animals used were anesthetized and the alveolar lavage fluid was collected, the lower cell pellets were collected after centrifugation, and the cells were resuspended, fixed with methanol and stained with Wright-Giemsa, and the eosinophils, neutrophils, macrophages and lymphocytes were counted by an optical microscope. The mice were euthanized with excess carbon dioxide. After the maximum blood volume was collected from the heart, the left lung was fixed with neutral formaldehyde and embedded in paraffin, sliced and HE staining, photographed to observe the lung injury and score.
A short description of assay [3]: Body weight of LPS-induced ALI/ARDS mice. The following applies: oral dosing 0.5 h before and 6 hours after LPS (146 150 mg/kg, 41 75 mg/kg, 450 100 mg/kg, dexamethasone 10 mg/kg); 24 hours after LPS; Mean±SEM.
Experimental: as §1
Setting [4] is: after acting for 4 hours, comparison between compounds 146, 450, 41 and model group.

Three compounds from patent US20230210833A1, “USE OF IRAK4 INHIBITOR IN TREATMENT OF ACUTE LUNG INJURY ALI/ARDS” (SHANGHAI LEADINGTAC PHARMACEUTICAL CO., LTD., priority 2020, published 2023) can be followed below.

Experimental for IL-1β: (§2) After LPS induced model for 4 hours, all mice were anesthetized and alveolar lavage fluid was collected, and the supernatant was collected by centrifuging alveolar lavage fluid. The levels of TNF-α, IL-6 and IL-1β in the supernatant were detected by enzyme-linked immunosorbent assay (Elisa).
Experimental for IL-6: as §2
Experimental for TNF-α: as §2

As to `Cc1cc(-c2nc(C(=O)Nc3cc4oc(N5CCOCC5)nc4nc3N3CC[C@@H](O)C3)co2)ccn1` [Compound 41, (R)-N-(5-(3-hydroxypyrrolidine-1-yl)-2-morpholinoxazo [4,5-b]pyridine-6-yl)-2-(2-methylpyridine-4-yl) oxazole-4-formamide], in the assay with TNF-α, the “Inhibition of TNF-α (%)” value is recorded as 12.90%. This compound also yielded a Pulmonary pathology score in assay [1] of 4.17. The “Inhibition of IL-6 (%)” value in the assay on IL-6 amounted to 21.40%. For the same compound, in the assay on IL-1β, the “Inhibition of IL-1β (%)” value stood at 52.00%. For the same compound, in assay [2], the “Eosinophils (*10^4)” value is listed as 2.81 *10^4, the “Lymphocytes (*10^4)” value is listed as 3.71 *10^4, the “Macrophages (*10^4)” value is 89.06 *10^4 and the “Neutrophils (*10^4)” value is recorded as 466.17 *10^4. Further, the “Total cell count (*10^4)” value in assay [2] is 561.75 *10^4. Besides, the “Weight” value in assay [3] was found to be 19.45 ± 0.71 g.
As for `CC[C@@H]1[C@H](F)C(=O)N[C@@H]1COc1nccc2cc(C(N)=O)c(OC)cc12` [Compound 450], the “TNF-α inhibitory effect (in words)” value with TNF-α (setting [4]) is given as “significantly lower than that of compound 146”. The “Inhibition of TNF-α (%)” value in the assay on TNF-α was found to be 28.70%. Also, the Pulmonary pathology score in assay [1] stood at 4.83. In addition, the “IL-6 inhibitory effect (in words)” value in the assay with IL-6 (setting [4]) is recorded as “significantly lower than that of compound 146”. For the same compound, the “Inhibition of IL-6 (%)” value in the assay on IL-6 amounted to 36.40%. Further, in the assay on IL-1β (setting [4]), the “IL-1β inhibitory effect (in words)” value is listed as “significantly lower than that of compound 146”. Moreover, the “Inhibition of IL-1β (%)” value in the assay on IL-1β was found to be 43.90%. Besides, in assay [2], the “Eosinophils (*10^4)” value is 3.11 *10^4, the “Lymphocytes (*10^4)” value was 2.74 *10^4, the “Macrophages (*10^4)” value is recorded as 74.91 *10^4 and the “Neutrophils (*10^4)” value is recorded as 386.74 *10^4. Moreover, the “Total cell count (*10^4)” value in assay [2] is given as 467.50 *10^4. Further, the “Weight” value in assay [3] is reported as 18.68 ± 0.4 g.
Take `C[C@@H]1C[C@H]2[C@@H]3CCC4=CC(=O)C=C[C@]4(C)[C@@]3(F)[C@@H](O)C[C@]2(C)[C@@]1(O)C(=O)CO` [Dexamethasone, dexamethasone]: the “Inhibition of TNF-α (%)” value in the assay with TNF-α is reported as 128.70%. The compound also displayed a Pulmonary pathology score in assay [1] of 3.50. Besides, the “Inhibition of IL-6 (%)” value with IL-6 is listed as 0.00%. In addition, the “Inhibition of IL-1β (%)” value with IL-1β is 0.00%. In assay [2], the “Eosinophils (*10^4)” value is reported as 3.17 *10^4, the “Lymphocytes (*10^4)” value is reported as 3.25 *10^4, the “Macrophages (*10^4)” value is listed as 108.20 *10^4 and the “Neutrophils (*10^4)” value was 361.63 *10^4. In addition, the “Total cell count (*10^4)” value in assay [2] is 476.25 *10^4. The “Weight” value in assay [3] is on record as 18.91 ± 0.74 g.
